{"source": "ChEMBL document CHEMBL2163242", "about": "“Development of anti-coxsackievirus agents targeting 3C protease” (Bioorg Med Chem Lett, 2012)", "key": {"[1]": {"tested_on": "Coxsackievirus B3", "experiment": "Antiviral activity against Coxsackievirus B3 H3 infected in HeLa-UVM cells assessed as host cell viability at 1 uM after 6 to 24 hrs by CCK8 assay", "assay_type": "functional"}, "[2]": {"molecular_target": "Genome polyprotein (Coxsackievirus B3 (strain Nancy), UniProt P03313)", "sequence (P03313 1541-1723 limits assumed)": "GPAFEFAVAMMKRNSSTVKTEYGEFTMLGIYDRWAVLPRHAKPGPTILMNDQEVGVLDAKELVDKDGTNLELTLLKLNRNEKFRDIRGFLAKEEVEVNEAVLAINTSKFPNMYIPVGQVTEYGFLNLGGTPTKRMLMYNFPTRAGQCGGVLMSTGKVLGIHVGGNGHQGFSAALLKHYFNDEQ", "experiment": "Inhibition of Coxsackievirus B3 protease 3c using NMA-EALFQGPPVK-DNP as substrate incubated for 5 mins prior to substrate addition measured after 1 hr by FRET assay"}, "[3]": {"molecular_target": "Genome polyprotein (Coxsackievirus B3 (strain Nancy)) (UniProt P03313)", "sequence (P03313 whole entry)": "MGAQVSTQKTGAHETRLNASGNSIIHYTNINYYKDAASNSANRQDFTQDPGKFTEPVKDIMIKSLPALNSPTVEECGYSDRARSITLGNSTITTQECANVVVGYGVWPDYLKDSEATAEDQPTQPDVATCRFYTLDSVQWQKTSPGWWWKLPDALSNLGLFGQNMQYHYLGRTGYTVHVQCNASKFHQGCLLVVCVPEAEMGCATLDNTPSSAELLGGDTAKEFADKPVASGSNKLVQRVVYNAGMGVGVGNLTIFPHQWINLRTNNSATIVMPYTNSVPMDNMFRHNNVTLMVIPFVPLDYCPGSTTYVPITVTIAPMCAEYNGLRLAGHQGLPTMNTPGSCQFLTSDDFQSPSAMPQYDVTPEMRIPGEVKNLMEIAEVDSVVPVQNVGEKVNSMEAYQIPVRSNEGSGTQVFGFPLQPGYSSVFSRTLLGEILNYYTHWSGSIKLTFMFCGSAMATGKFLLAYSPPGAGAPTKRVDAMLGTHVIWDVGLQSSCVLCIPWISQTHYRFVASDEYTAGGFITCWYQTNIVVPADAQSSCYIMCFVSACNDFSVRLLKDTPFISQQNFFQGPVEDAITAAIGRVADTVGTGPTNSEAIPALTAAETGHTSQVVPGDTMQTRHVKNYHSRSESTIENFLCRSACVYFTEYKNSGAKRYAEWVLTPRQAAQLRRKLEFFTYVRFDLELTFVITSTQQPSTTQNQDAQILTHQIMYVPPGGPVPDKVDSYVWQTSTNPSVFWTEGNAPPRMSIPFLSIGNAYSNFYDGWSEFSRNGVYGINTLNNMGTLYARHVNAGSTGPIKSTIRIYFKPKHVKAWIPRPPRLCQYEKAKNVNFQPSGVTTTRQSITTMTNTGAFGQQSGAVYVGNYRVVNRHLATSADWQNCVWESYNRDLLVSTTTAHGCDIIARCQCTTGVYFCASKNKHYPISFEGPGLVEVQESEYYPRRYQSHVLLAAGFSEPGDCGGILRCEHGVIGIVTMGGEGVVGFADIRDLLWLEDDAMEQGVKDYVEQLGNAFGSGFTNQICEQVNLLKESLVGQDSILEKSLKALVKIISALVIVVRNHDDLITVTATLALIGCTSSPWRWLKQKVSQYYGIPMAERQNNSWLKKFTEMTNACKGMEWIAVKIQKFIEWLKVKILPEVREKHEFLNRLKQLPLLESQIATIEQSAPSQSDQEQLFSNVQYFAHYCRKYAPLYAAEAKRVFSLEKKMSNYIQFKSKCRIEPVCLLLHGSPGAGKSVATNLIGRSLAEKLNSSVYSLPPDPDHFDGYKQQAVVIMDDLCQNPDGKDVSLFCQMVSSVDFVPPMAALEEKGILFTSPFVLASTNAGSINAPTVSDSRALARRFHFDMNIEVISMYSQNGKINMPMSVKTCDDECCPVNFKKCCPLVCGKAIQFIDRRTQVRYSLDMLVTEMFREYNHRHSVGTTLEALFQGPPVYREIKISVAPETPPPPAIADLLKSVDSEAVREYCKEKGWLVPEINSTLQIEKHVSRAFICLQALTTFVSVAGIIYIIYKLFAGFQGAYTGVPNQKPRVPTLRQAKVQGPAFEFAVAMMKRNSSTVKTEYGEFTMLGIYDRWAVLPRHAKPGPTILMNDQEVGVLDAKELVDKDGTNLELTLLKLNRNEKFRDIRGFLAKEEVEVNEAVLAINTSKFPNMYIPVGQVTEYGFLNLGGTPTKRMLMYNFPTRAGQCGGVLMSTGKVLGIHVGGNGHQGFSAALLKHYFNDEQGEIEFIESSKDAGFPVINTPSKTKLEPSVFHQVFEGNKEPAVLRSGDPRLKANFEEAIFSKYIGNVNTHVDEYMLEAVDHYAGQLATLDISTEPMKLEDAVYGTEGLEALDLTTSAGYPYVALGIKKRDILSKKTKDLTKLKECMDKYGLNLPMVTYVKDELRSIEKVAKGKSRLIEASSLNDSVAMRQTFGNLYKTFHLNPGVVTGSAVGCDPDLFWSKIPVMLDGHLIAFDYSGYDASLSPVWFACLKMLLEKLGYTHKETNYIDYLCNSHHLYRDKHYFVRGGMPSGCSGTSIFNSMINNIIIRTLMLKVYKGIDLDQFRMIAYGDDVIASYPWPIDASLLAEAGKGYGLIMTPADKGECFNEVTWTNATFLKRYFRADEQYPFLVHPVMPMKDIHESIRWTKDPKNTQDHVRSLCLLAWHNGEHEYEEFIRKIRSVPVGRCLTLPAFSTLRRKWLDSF", "experiment": "Inhibition of Coxsackievirus B3 protease 3c using NMA-EALFQGPPVK-DNP as substrate at 10 uM incubated for 5 mins prior to substrate addition measured after 1 hr by FRET assay"}, "[4]": {"experiment": "Aqueous solubility of the compound by HPLC analysis", "assay_type": "physicochemical", "settings": "buffer"}, "[5]": {"tested_on": "Coxsackievirus B3", "experiment": "Antiviral activity against Coxsackievirus B3 H3 infected in HeLa-UVM cells assessed as host cell viability at 0.5 uM after 6 to 24 hrs by CCK8 assay", "assay_type": "functional"}}, "data": [{"molecule": "Cc1cc(C(=O)N[C@H](C(=O)N[C@@H](Cc2ccc(F)cc2)C(=O)N[C@@H](/C=C/C(=O)OCc2nc(-c3ccncc3)no2)CCC(N)=O)C(C)C)no1", "values": [{"measurement": "Activity", "setting": "[1]", "result": 50, "unit": "%"}, {"measurement": "IC50", "setting": "[2]", "result": 650, "unit": "nM"}]}, {"molecule": "Cc1cc(C(=O)N[C@H](C(=O)N[C@@H](Cc2ccc(F)cc2)C(=O)N[C@@H](/C=C/C(=O)OCc2nc3cc(Cl)ccc3[nH]2)CCC(N)=O)C(C)C)no1", "values": [{"measurement": "Activity", "setting": "[1]", "result": 50, "unit": "%"}, {"measurement": "IC50", "setting": "[2]", "result": 650, "unit": "nM"}]}, {"molecule": "Cc1cc(C(=O)N[C@H](C(=O)N[C@@H](Cc2ccc(F)cc2)C(=O)N[C@@H](/C=C/C(=O)OCc2ccc3cn[nH]c3c2)CCC(N)=O)C(C)C)no1", "values": [{"measurement": "Activity", "setting": "[1]", "result": 50, "unit": "%"}, {"measurement": "IC50", "setting": "[2]", "result": 390, "unit": "nM"}]}, {"molecule": "Cc1cc(C(=O)N[C@H](C(=O)N[C@@H](Cc2ccc(F)cc2)C(=O)N[C@@H](/C=C/C(=O)OCc2cccc3ncccc23)CCC(N)=O)C(C)C)no1", "values": [{"measurement": "Activity", "setting": "[1]", "result": 50, "unit": "%"}, {"measurement": "IC50", "setting": "[2]", "result": 280, "unit": "nM"}]}, {"molecule": "Cc1cc(C(=O)N[C@H](C(=O)N[C@@H](Cc2ccc(F)cc2)C(=O)N[C@@H](/C=C/C(=O)OCc2ccc3cnccc3c2)CCC(N)=O)C(C)C)no1", "values": [{"measurement": "Activity", "setting": "[1]", "result": 50, "unit": "%"}, {"measurement": "IC50", "setting": "[2]", "result": 240, "unit": "nM"}]}, {"molecule": "Cc1cc(C(=O)N[C@H](C(=O)N[C@@H](Cc2ccc(F)cc2)C(=O)N[C@@H](/C=C/C(=O)OCc2cn3cccc(C)c3n2)CCC(N)=O)C(C)C)no1", "values": [{"measurement": "Activity", "setting": "[1]", "result": 50, "unit": "%"}, {"measurement": "IC50", "setting": "[2]", "result": 170, "unit": "nM"}]}, {"molecule": "Cc1cc(C(=O)N[C@H](C(=O)N[C@@H](Cc2ccc(F)cc2)C(=O)N[C@@H](/C=C/C(=O)OCc2ccc3nc[nH]c3c2)CCC(N)=O)C(C)C)no1", "values": [{"measurement": "Activity", "setting": "[1]", "result": 50, "unit": "%"}, {"measurement": "IC50", "setting": "[2]", "result": 470, "unit": "nM"}]}, {"molecule": "Cc1cc(C(=O)N[C@H](C(=O)N[C@@H](Cc2ccc(F)cc2)C(=O)N[C@@H](/C=C/C(=O)OCc2cccc3cnccc23)CCC(N)=O)C(C)C)no1", "values": [{"measurement": "Activity", "setting": "[1]", "result": 50, "unit": "%"}, {"measurement": "IC50", "setting": "[2]", "result": 270, "unit": "nM"}]}, {"molecule": "Cc1cc(C(=O)N[C@H](C(=O)N[C@@H](Cc2ccc(F)cc2)C(=O)O)C(C)C)no1", "values": [{"measurement": "inhibition", "setting": "[3]", "result": 33.5, "unit": "%"}]}, {"molecule": "Cc1cc(C(=O)N[C@H](C(=O)N[C@@H](Cc2ccc(F)cc2)C(=O)N[C@@H](/C=C/C(=O)OCc2ccc3[nH]ncc3c2)CCC(N)=O)C(C)C)no1.Cl", "values": [{"measurement": "solubility", "setting": "[4]", "result": "soluble"}]}, {"molecule": "Cc1cc(C(=O)N[C@H](C(=O)N[C@@H](Cc2ccc(F)cc2)C(=O)N[C@@H](/C=C/C(=O)OCc2ccc3ccccc3c2)CCC(N)=O)C(C)C)no1", "values": [{"measurement": "Activity", "setting": "[1]", "result": 50, "unit": "%"}, {"measurement": "IC50", "setting": "[2]", "result": 410, "unit": "nM"}]}, {"molecule": "Cc1cc(C(=O)N[C@H](C(=O)N[C@@H](Cc2ccc(F)cc2)C(=O)N[C@@H](/C=C/C(=O)OCc2ccnc3ccccc23)CCC(N)=O)C(C)C)no1", "values": [{"measurement": "Activity", "setting": "[1]", "result": 50, "unit": "%"}, {"measurement": "Activity", "setting": "[5]", "result": 50, "unit": "%"}, {"measurement": "IC50", "setting": "[2]", "result": 130, "unit": "nM"}]}, {"molecule": "Cc1cc(C(=O)N[C@H](C(=O)N[C@@H](Cc2ccc(F)cc2)C(=O)N[C@@H](/C=C/C(=O)OCc2nc3ccccc3[nH]2)CCC(N)=O)C(C)C)no1", "values": [{"measurement": "Activity", "setting": "[1]", "result": 50, "unit": "%"}, {"measurement": "IC50", "setting": "[2]", "result": 240, "unit": "nM"}]}, {"molecule": "Cc1cc(C(=O)N[C@H](C(=O)N[C@@H](Cc2ccc(F)cc2)C(=O)N[C@@H](/C=C/C(=O)OCc2ccc3[nH]ncc3c2)CCC(N)=O)C(C)C)no1", "values": [{"measurement": "Activity", "setting": "[1]", "result": 50, "unit": "%"}, {"measurement": "IC50", "setting": "[2]", "result": 180, "unit": "nM"}]}, {"molecule": "Cc1cc(C(=O)N[C@H](C(=O)N[C@@H](Cc2ccc(F)cc2)C(=O)N[C@@H](/C=C/C(=O)OCc2cnc3ccccc3c2)CCC(N)=O)C(C)C)no1", "values": [{"measurement": "Activity", "setting": "[1]", "result": 50, "unit": "%"}, {"measurement": "Activity", "setting": "[5]", "result": 50, "unit": "%"}, {"measurement": "IC50", "setting": "[2]", "result": 250, "unit": "nM"}]}, {"molecule": "Cc1cc(C(=O)N[C@H](C(=O)N[C@@H](Cc2ccc(F)cc2)C(=O)N[C@@H](/C=C/C(=O)OCc2cn3c(C)cccc3n2)CCC(N)=O)C(C)C)no1", "values": [{"measurement": "Activity", "setting": "[1]", "result": 50, "unit": "%"}, {"measurement": "IC50", "setting": "[2]", "result": 160, "unit": "nM"}]}]}
